{"source": "patent US20210000792A1", "about": "“METHODS FOR REDUCING OR PREVENTING CARDIOVASCULAR EVENTS IN PATIENTS WITH TYPE II DIABETES MELLITUS” (Janssen Pharmaceutica NV, priority 2017, published 2021)", "key": {"[1]": {"tested_on": "men and women with type 2 diabetes and history or high risk of cardiovascular disease", "assay": "CANVAS-R clinical trial, canagliflozin 100 mg with optional up-titration to 300 mg versus placebo", "assay_type": "in vivo, human", "excerpt": "(§1) Two clinical trials were completed to assess the cardiovascular safety and efficacy of canagliflozin, and how any potential benefits might balance against known risks. The complete protocols for said trials, name CANVAS and CANVAS-R, which protocols are each incorporated in their entirety herein, may be found on www.clinicaltrials.gov (more specifically at the following urls: https://clinicaltrials.gov/ct2/show/NCT01032629?term=canvas&rank=1 and https://clinicaltrials.gov/ct2/show/NCT01989754?term=canvas-r&rank=1, respectively).\n(§2) All potential participants completed a 2-week, single-blind, placebo run-in period. Randomization was done centrally through an interactive web response system using a computer-generated randomization schedule prepared by the study sponsor using randomly permuted blocks. Participants in CANVAS were randomly assigned in a 1:1:1 ratio to canagliflozin 300 mg, canagliflozin 100 mg, or matching placebo, and participants in CANVAS-R were randomly assigned in a 1:1 ratio to canagliflozin or matching placebo administered at an initial dose of 100 mg daily with optional up-titration to 300 mg from week 13. Participants and all study staff were masked to individual treatment allocations until the completion of the study. Use of other background therapy for glycemic management and other risk factor control was according to best practice instituted in line with local guidelines including Renin Angiotensin System (RAS) blockade.\n(§3) Post-randomization, face-to-face follow-up was scheduled for 3 visits in the first year and at 6-month intervals thereafter, with alternating telephone follow-up between face-to-face assessments. Every follow-up included inquiry about primary and secondary outcome events and serious adverse events. Urinary albumin:creatinine ratio was measured every 26 weeks in CANVAS-R, and at Week 12 and then annually in CANVAS. Serum creatinine measurement with estimation of glomerular filtration rate (eGFR) was performed at least every 26 weeks in both trials. Individuals that prematurely discontinued study treatment continued scheduled follow-up wherever possible, with extensive efforts made to obtain full outcome data for all during the final follow-up window that spanned November 2016 to February 2017.\n(§4) The primary outcome was a composite of cardiovascular mortality, nonfatal myocardial infarction, or nonfatal stroke. Secondary outcomes were total mortality; cardiovascular mortality; progression of albuminuria; and the composite of cardiovascular mortality and hospitalization for heart failure. Progression of albuminuria grade was defined as a more then 30% increase in albuminuria and a switch from either normoalbuminuria to microalbuminuria or macroalbuminuria, or from microalbuminuria to macroalbuminuria. In the event that sequential testing was not significant for all then remaining outcomes were scheduled for assessment as exploratory variables in the integrated dataset.\n(§5) Evaluation of total hospitalizations was also prespecified.\n(§6) All major cardiovascular events, renal outcomes and deaths, plus selected safety outcomes were ratified by Endpoint Adjudication Committees. Intermediate markers of cardiovascular risk and requirement for antihyperglycemic agents were assessed to help understand the observed effects on cardiovascular and renal outcomes. Analyses of safety were of adverse events coded using the latest version of the MedDRA Dictionary. For bone fracture, the primary prespecified analysis was for low-trauma fracture events but secondary analysis of all fractures was also done. Amputations were assessed overall but numbers of cases above and below the ankle were also reported.\n(§7) The primary hypothesis test was of noninferiority for the hazard ratio (HR) for the primary outcome at the margin of 1.3 for all canagliflozin versus placebo using the full integrated dataset and the intent to treat approach. […]"}, "[2]": {"tested_on": "men and women with type 2 diabetes and history or high risk of cardiovascular disease", "assay": "CANVAS clinical trial, canagliflozin 300 mg or 100 mg versus placebo", "assay_type": "in vivo, human", "excerpt": "as §1, §2, §3, §4, §5, §6, §7"}, "[3]": {"conditions": "vs placebo, listed as canagliflozin"}}}
{"compound": "Cc1ccc([C@@H]2O[C@H](CO)[C@@H](O)[C@H](O)[C@H]2O)cc1Cc1ccc(-c2ccc(F)cc2)s1", "note": "[Canagliflozin, canagliflozin]", "values": [{"measurement": "40% reduction in eGFR, RRT, renal or CV death, n/N", "setting": "[1]; canagliflozin group", "value": "93/2907"}, {"measurement": "Cardiovascular mortality or hospitalization for heart failure, n/N", "setting": "[1]; canagliflozin group", "value": "95/2907"}, {"measurement": "Cardiovascular mortality, n/N", "setting": "[1]; canagliflozin group", "value": "61/2907"}, {"measurement": "Cardiovascular mortality, nonfatal myocardial infarction, or nonfatal stroke, n/N", "setting": "[1]; canagliflozin group", "value": "160/2907"}, {"measurement": "Hospitalization for heart failure, n/N", "setting": "[1]; canagliflozin group", "value": "38/2907"}, {"measurement": "Nonfatal myocardial infarction, n/N", "setting": "[1]; canagliflozin group", "value": "63/2907"}, {"measurement": "Nonfatal stroke, n/N", "setting": "[1]; canagliflozin group", "value": "52/2907"}, {"measurement": "Progression of albuminuria, n/N", "setting": "[1]; canagliflozin group", "value": "446/2541"}, {"measurement": "Regression of albuminuria, n/N", "setting": "[1]; canagliflozin group", "value": "451/893"}, {"measurement": "Total mortality, n/N", "setting": "[1]; canagliflozin group", "value": "99/2907"}, {"measurement": "40% reduction in eGFR, RRT, or renal death, hazard ratio (95% confidence interval)", "setting": "[1]; vs placebo", "value": "0.71 (0.45-1.11)"}, {"measurement": "40% reduction in eGFR, RRT, renal death or macroalbuminuria, hazard ratio (95% confidence interval)", "setting": "[1]; vs placebo", "value": "0.48 (0.38-0.60)"}, {"measurement": "40% reduction in eGFR, RRT, renal or CV death, hazard ratio (95% confidence interval)", "setting": "[1]; vs placebo", "value": "0.82 (0.62-1.08)"}, {"measurement": "Cardiovascular mortality or hospitalization for heart failure, hazard ratio (95% confidence interval)", "setting": "[1]; vs placebo", "value": "0.72 (0.55-0.94)"}, {"measurement": "Cardiovascular mortality, hazard ratio (95% confidence interval)", "setting": "[1]; vs placebo", "value": "0.86 (0.61-1.22)"}, {"measurement": "Cardiovascular mortality, nonfatal myocardial infarction, or nonfatal stroke, hazard ratio (95% confidence interval)", "setting": "[1]; vs placebo", "value": "0.82 (0.66-1.01)"}, {"measurement": "Hospitalization for heart failure, hazard ratio (95% confidence interval)", "setting": "[1]; vs placebo", "value": "0.56 (0.38-0.83)"}, {"measurement": "Nonfatal myocardial infarction, hazard ratio (95% confidence interval)", "setting": "[1]; vs placebo", "value": "0.85 (0.61-1.19)"}, {"measurement": "Nonfatal stroke, hazard ratio (95% confidence interval)", "setting": "[1]; vs placebo", "value": "0.82 (0.57-1.18)"}, {"measurement": "Progression of albuminuria, hazard ratio (95% confidence interval)", "setting": "[1]; vs placebo", "value": "0.64 (0.57-0.73)"}, {"measurement": "Regression of albuminuria, hazard ratio (95% confidence interval)", "setting": "[1]; vs placebo", "value": "1.80 (1.55-2.09)"}, {"measurement": "Total mortality, hazard ratio (95% confidence interval)", "setting": "[1]; vs placebo", "value": "0.92 (0.70-1.21)"}, {"measurement": "Progression of albuminuria, hazard ratio (95% confidence interval)", "setting": "[1]; [3]", "value": 0.64}, {"measurement": "40% reduction in eGFR, RRT, or renal death, n/N", "setting": "[2]; canagliflozin group", "value": "91/2888"}, {"measurement": "40% reduction in eGFR, RRT, renal death or macroalbuminuria, n/N", "setting": "[2]; canagliflozin group", "value": "292/2888"}, {"measurement": "40% reduction in eGFR, RRT, renal or CV death, n/N", "setting": "[2]; canagliflozin group", "value": "286/2888"}, {"measurement": "Cardiovascular mortality or hospitalization for heart failure, n/N", "setting": "[2]; canagliflozin group", "value": "269/2888"}, {"measurement": "Cardiovascular mortality, n/N", "setting": "[2]; canagliflozin group", "value": "207/2888"}, {"measurement": "Cardiovascular mortality, nonfatal myocardial infarction, or nonfatal stroke, n/N", "setting": "[2]; canagliflozin group", "value": "425/2888"}, {"measurement": "Hospitalization for heart failure, n/N", "setting": "[2]; canagliflozin group", "value": "85/2888"}, {"measurement": "Nonfatal myocardial infarction, n/N", "setting": "[2]; canagliflozin group", "value": "152/2888"}, {"measurement": "Nonfatal stroke, n/N", "setting": "[2]; canagliflozin group", "value": "106/2888"}, {"measurement": "Progression of albuminuria, n/N", "setting": "[2]; canagliflozin group", "value": "895/2655"}, {"measurement": "Regression of albuminuria, n/N", "setting": "[2]; canagliflozin group", "value": "434/786"}, {"measurement": "Total mortality, n/N", "setting": "[2]; canagliflozin group", "value": "301/2888"}, {"measurement": "40% reduction in eGFR, RRT, or renal death, hazard ratio (95% confidence interval)", "setting": "[2]; vs placebo", "value": "0.56 (0.41-0.75)"}, {"measurement": "40% reduction in eGFR, RRT, renal death or macroalbuminuria, hazard ratio (95% confidence interval)", "setting": "[2]; vs placebo", "value": "0.64 (0.54-0.76)"}, {"measurement": "40% reduction in eGFR, RRT, renal or CV death, hazard ratio (95% confidence interval)", "setting": "[2]; vs placebo", "value": "0.74 (0.62-0.89)"}, {"measurement": "Cardiovascular mortality or hospitalization for heart failure, hazard ratio (95% confidence interval)", "setting": "[2]; vs placebo", "value": "0.82 (0.67-0.99)"}, {"measurement": "Cardiovascular mortality, hazard ratio (95% confidence interval)", "setting": "[2]; vs placebo", "value": "0.88 (0.70-1.10)"}, {"measurement": "Cardiovascular mortality, nonfatal myocardial infarction, or nonfatal stroke, hazard ratio (95% confidence interval)", "setting": "[2]; vs placebo", "value": "0.88 (0.75-1.03)"}, {"measurement": "Hospitalization for heart failure, hazard ratio (95% confidence interval)", "setting": "[2]; vs placebo", "value": "0.77 (0.55-1.08)"}, {"measurement": "Nonfatal myocardial infarction, hazard ratio (95% confidence interval)", "setting": "[2]; vs placebo", "value": "0.85 (0.65-1.11)"}, {"measurement": "Nonfatal stroke, hazard ratio (95% confidence interval)", "setting": "[2]; vs placebo", "value": "0.97 (0.70-1.35)"}, {"measurement": "Progression of albuminuria, hazard ratio (95% confidence interval)", "setting": "[2]; vs placebo", "value": "0.80 (0.72-0.90)"}, {"measurement": "Regression of albuminuria, hazard ratio (95% confidence interval)", "setting": "[2]; vs placebo", "value": "1.56 (1.30-1.87)"}, {"measurement": "Total mortality, hazard ratio (95% confidence interval)", "setting": "[2]; vs placebo", "value": "0.84 (0.70-1.01)"}, {"measurement": "Progression of albuminuria, hazard ratio (95% confidence interval)", "setting": "[2]; [3]", "value": 0.80}]}
